Key:
Format in all cases: in vivo
golden syrian hamsters = experiment: Anti-hyperlipemic activity: inhibition of serum total cholesterol increase in cholesterol-fed hamsters; conditions: hamsters on feed with 1 % cholesterol and 0.5 % cholic acid
Experimental: Six-week old golden syrian hamsters (4 to 5 animals/group) were used.
Untreated control group received normal solid feed (MF, Oriental Kobo Kogyo), while control and a drug-treated groups received feed containing 1 % cholesterol and 0.5 % cholic acid (manufactured by Oriental Kobo Kogyo) to induce […].
The test compound was suspended in 1.0 % Tween 80. The solvent or the test compound was started to be orally administered (10 ml/kg, once a day, for 5 days) as soon as feed was changed to cholesterol-containing feed. Alter final administration, blood was drawn from abdominal descendens main vein while anesthetized with nembutal. Serum was collected and total cholesterol (TC) in serum was determined according to enzymatic method using assay kit (Kyowa Medics).

KK-A^v mice = experiment: Activity to lower blood sugar (hypoglycaemic activity) in KK-A^v mice; conditions: serum
Experimental: Ten-week old KK-A^v mice (4 - 6 animals/group) were used.
The solvent (1 % Tween 80 solution) or a suspension of the test compound was orally administered once a day for 11 days (10 ml/kg).
Before administration and after the final administration, blood was drawn from caudal vein, and serum was collected and blood sugar level in serum was determined.
There was no difference between blood sugar levels before and after administration for control group. The test compound provided statistically significant decrease in blood sugar level for KK-A^v mice compared with the value before administration. The change in weight of test compound-treated group during oral administration was almost same as that of the control group.

[1] = tested on: Spontaneously hypertensive rats (SHR); experiment: Antihypertensive activity: blood pressure lowering in SHR; conditions: oral, suspended in 1.0 % Tween 80
Experimental: Spontaneously hypertensive rats (SHR) were anesthetized with ether and polyethylene catheter for measurement of blood pressure was inserted in ventral aortas via caudal artery on the day before these experiments, and placed in separate cages and their tails were fixed. Under aparalytic conditions, blood pressure of semi-restrained rats was measured using a pressure transducer (TP-400T, manufactured by Nippon Koden). Heart rate was determined from pulse wave measured by a cardiotachometer (AT0691G, manufactured by Nippon Koden). On the test day, the test compounds were administered to rats after blood pressure and heart rate were confirmed to become sufficiently stable.
The test compounds were suspended in Tween 80 (1.0 % solution, 10 ml/kg) and orally administered to SHRs.

[2] = oral 30 mg/kg once a day for 5 days
[3] = oral 100 mg/kg once a day for 5 days

Row | SMILES | Inhibition of TC increase (golden syrian hamsters; [2]) [%] | Inhibition of TC increase (golden syrian hamsters; [3]) [%] | Maximum fall in blood pressure ([1]; dose 10 mg/kg) [mmHg] | also measured
1 | c1cc(OCCCn2ccnc2)c2c(c1)OCO2 [Compound 1, 4-[3-(1-imidazolyl)propoxy]-1,3-benzodioxole] | 80 | 100 | – | Blood sugar level, After administration (KK-A^v mice; after oral 30 mg/kg once a day for 11 days, P < 0.05 vs value before administration): 532.2 ± 23.9; Blood sugar level, Before administration (KK-A^v mice; baseline before administration, 30 mg/kg group): 676.4 ± 33.7
2 | N#Cc1ncn(CCCOc2cccc3c2OCO3)c1C#N [Compound 4, 4-[3-(4,5-dicyano-1-imidazolyl)propoxy]-1,3-benzodioxole] | – | – | -20 | –
3 | Clc1ncn(CCCOc2cccc3c2OCO3)c1Cl [Compound 5, 4-[3-(4,5-dichloro-1-imidazolyl)propoxy]-1,3-benzodioxole] | – | – | -20 | –
4 | c1cc(OCCCn2cnc3ccccc32)c2c(c1)OCO2 [Compound 6, 4-[3-(1-benzimidazolyl)propoxy]-1,3-benzodioxole] | – | – | -20 | –
5 | c1cc(OCCCCn2ccnc2)c2c(c1)OCO2 [Compound 7, 4-[4-(1-imidazolyl)butoxy]-1,3-benzodioxole] | 38 | – | -60 | –
6 | c1cc(OCCCCCn2ccnc2)c2c(c1)OCO2 [Compound 8, 4-[5-(1-imidazolyl)pentoxy]-1,3-benzodioxole] | – | – | -25 | –
7 | O=C(NCCCn1ccnc1)c1ccc2c(c1)OCO2 [Compound 13, N-[3-(1-imidazolyl)propyl]-3,4-methylenedioxybenzamide] | 26 | 60 | – | –
8 | O=C(NCCCn1ccnc1)c1ccc2c(c1)OCCO2 [Compound 16, N-[3-(1-imidazolyl)propyl]-1,4-benzodioxane-6-carboxamide] | – | 79 | – | Maximum fall in blood pressure ([1]; dose 30 mg/kg): -34.3 mmHg

From EP0652217A1, “N-substituted imidazole derivatives” (MITSUBISHI CHEMICAL CORPORATION, priority 1993, dated 1995)
